Here are results for seven compounds from PubChem BioAssay (NCI).

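Growth conditions: 96-well plates. Treatment: test compound, 48 hours, 5 concentrations. Analysis: linear interpolation between bracketing concentrations; unreached endpoints set to highest concentration. TGI marks complete inhibition of growth.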 Some results are limits rather than exact numbers.

Test systems include A498 renal; A549 NSCLC; BT-549 breast; DU-145 prostate; HCT-15 colon; IGROV1 ovarian; K-562 leukemia; M14 melanoma; MALME-3M melanoma; MDA-N; NCI-H522 lung; OVCAR-4 ovarian; PC-3 prostate; SK-MEL-5 melanoma; SK-OV-3 ovarian; SNB-75 CNS; SW-620 colon; T-47D breast; UACC-257 melanoma; UO-31 renal.
Holding throughout (experiment): NCI tumour cell line growth inhibition, 48 h

With `NC(=O)c1cc2cc(Cl)cc(Cl)c2oc1=Nc1ccc(F)cc1`, the TGI with A498 renal was 35.3 µM; in the test with A549 NSCLC, 70.1 µM; with BT-549 breast it was 37 µM; with DU-145 prostate, 41.8 µM; with HCT-15 colon, 42.3 µM; with IGROV1 ovarian, 87.3 µM. The TGI in the test with K-562 leukemia was determined as 27.5 µM; in the test on M14 melanoma, 45.5 µM; with MALME-3M melanoma it was 43 µM; in the test with MDA-N, 66.5 µM; with NCI-H522 lung it was 38.1 µM; with OVCAR-4 ovarian, 70.6 µM. Moreover, the TGI in the test on PC-3 prostate is 44.3 µM; with SK-MEL-5 melanoma, 31.7 µM; with SK-OV-3 ovarian, 56.5 µM; in the test on SNB-75 CNS, 30.3 µM; in the test on SW-620 colon it was more than 100 µM; with T-47D breast, 73.5 µM. Further, the TGI with UACC-257 melanoma is 42.8 µM; in the test on UO-31 renal, more than 100 µM.

On to `N#CC12C(=O)N3C(=NC(c4ccccc4)NC3c3ccccc3)C1(C#N)C(c1ccccc1)NC1=C2CCC1` (stereo not given), for which the TGI in the test on A498 renal, in the test with A549 NSCLC, in the test on BT-549 breast, with DU-145 prostate, in the test with HCT-15 colon and in the test with IGROV1 ovarian was more than 100 µM each time. The TGI in the test with K-562 leukemia, in the test on M14 melanoma, with MALME-3M melanoma, in the test with MDA-N, in the test on NCI-H522 lung and in the test on OVCAR-4 ovarian was more than 100 µM each time. Further, the TGI in the test with PC-3 prostate, with SK-MEL-5 melanoma, in the test on SK-OV-3 ovarian, in the test on SNB-75 CNS, in the test on SW-620 colon and in the test with T-47D breast was more than 100 µM each time. The TGI with UACC-257 melanoma and with UO-31 renal was more than 100 µM throughout.

Take `COc1ccc2c(C)cc(N/N=C(\C)C=O)nc2c1`: the TGI with A498 renal turned out to be 27.9 µM; with A549 NSCLC it was 38.6 µM; in the test with BT-549 breast, 29.3 µM; in the test with DU-145 prostate it was 24.7 µM; in the test with HCT-15 colon, 15.2 µM; in the test on IGROV1 ovarian, 33.5 µM. The TGI in the test on K-562 leukemia turned out to be 5.05 µM; in the test on M14 melanoma it was 35.2 µM; in the test on MALME-3M melanoma, 28 µM; in the test on MDA-N, 28.6 µM; with NCI-H522 lung it was 29.6 µM; in the test on OVCAR-4 ovarian it was 25.5 µM. Besides, the TGI in the test on PC-3 prostate was 24.2 µM; in the test on SK-MEL-5 melanoma, 26.7 µM; in the test with SK-OV-3 ovarian it was 23.2 µM; in the test on SNB-75 CNS it was 29.8 µM; with SW-620 colon, 27.5 µM; in the test on T-47D breast, 41.3 µM. Also, the TGI with UACC-257 melanoma was 33.9 µM; with UO-31 renal, 26.4 µM.

As to `O=C(C1OC1c1ccc(O)cc1)C12CC3CC(CC(C3)C1)C2` (stereo not given), the TGI with A498 renal was more than 96.1 µM; with A549 NSCLC, more than 100 µM; with BT-549 breast, more than 81.8 µM; in the test with DU-145 prostate, more than 100 µM; with HCT-15 colon, more than 100 µM; with IGROV1 ovarian it was more than 100 µM. Further, the TGI was more than 61.3 µM in the test with K-562 leukemia; more than 100 µM in the test with M14 melanoma; 98.9 µM with MALME-3M melanoma; more than 75 µM with MDA-N; 24.7 µM with NCI-H522 lung; more than 100 µM in the test with OVCAR-4 ovarian. Further, the TGI in the test with PC-3 prostate was more than 100 µM; in the test with SK-MEL-5 melanoma, more than 100 µM; in the test with SK-OV-3 ovarian it was more than 100 µM; with SNB-75 CNS it was more than 100 µM; in the test with SW-620 colon it was 70.3 µM; in the test on T-47D breast, 51.6 µM. Moreover, the TGI with UACC-257 melanoma is more than 100 µM; in the test on UO-31 renal, more than 86.1 µM.

On to `CC(=O)NC(CS/N=N/c1nc[nH]c1C(N)=O)C(=O)O` (stereo not given), for which the TGI in the test on A498 renal, with A549 NSCLC, in the test on BT-549 breast, in the test on DU-145 prostate, in the test with HCT-15 colon and with IGROV1 ovarian was more than 100 µM in each case. For the same compound, the TGI with K-562 leukemia was more than 100 µM; with M14 melanoma it was more than 100 µM; in the test on MALME-3M melanoma, more than 29.3 µM; in the test on MDA-N, more than 100 µM; in the test on NCI-H522 lung, more than 100 µM; in the test with OVCAR-4 ovarian, more than 100 µM. Besides, the TGI in the test on PC-3 prostate, with SK-MEL-5 melanoma, in the test on SK-OV-3 ovarian, in the test on SNB-75 CNS, in the test on SW-620 colon and in the test with T-47D breast was more than 100 µM each time. Moreover, the TGI in the test on UACC-257 melanoma and in the test with UO-31 renal was more than 100 µM in each case.

Take `C=CC/C=C/Cc1csc(C(C)(C)C(O)C/C=C/C(=C)CCNC(=O)OC)n1` (stereo not given): the TGI in the test on A498 renal, in the test with A549 NSCLC, with BT-549 breast, in the test on DU-145 prostate, in the test on HCT-15 colon and with IGROV1 ovarian was more than 100 µM in each case. The TGI with K-562 leukemia is more than 81.5 µM; in the test with M14 melanoma, more than 100 µM; in the test on MALME-3M melanoma, more than 100 µM; in the test with MDA-N, more than 100 µM; in the test with NCI-H522 lung, more than 100 µM; with OVCAR-4 ovarian it was more than 100 µM. For the same compound, the TGI in the test with PC-3 prostate was more than 100 µM; in the test with SK-MEL-5 melanoma, more than 60.5 µM; in the test on SK-OV-3 ovarian, more than 100 µM; in the test on SNB-75 CNS, more than 83.8 µM; in the test with SW-620 colon, more than 46.4 µM; with T-47D breast, more than 100 µM. Further, the TGI in the test with UACC-257 melanoma and with UO-31 renal was more than 100 µM throughout.

Consider `CC(=O)OCOC(=O)CN(CC(=O)OCOC(C)=O)Cc1cc2c(cc1OC(C)=O)Oc1cc(OC(C)=O)c(CN(CC(=O)OCOC(C)=O)CC(=O)OCOC(C)=O)cc1C21OC(=O)c2ccccc21`, for which the TGI in the test with A498 renal is 2.61 µM; in the test on A549 NSCLC, 4.82 µM; with BT-549 breast it was 1.16 µM; in the test with DU-145 prostate, 6.35 µM; in the test with HCT-15 colon, 7.05 µM; in the test on IGROV1 ovarian it was 1.36 µM. Further, the TGI in the test on K-562 leukemia stood at 0.401 µM; in the test with M14 melanoma it was 3.68 µM; with MALME-3M melanoma it was 1.88 µM; with MDA-N it was 1.32 µM; in the test on NCI-H522 lung, 1.17 µM; in the test on OVCAR-4 ovarian, 3.42 µM. Further, the TGI in the test on PC-3 prostate was determined as 4.82 µM; in the test with SK-MEL-5 melanoma, 2.12 µM; in the test with SK-OV-3 ovarian, 9.4 µM; in the test on SNB-75 CNS, 9.39 µM; with SW-620 colon, 3.64 µM; with T-47D breast, 4.21 µM. Besides, the results for the TGI in the test with UACC-257 melanoma and with UO-31 renal were 1.27 µM and 6.38 µM, respectively.
